# Results published in ChEMBL document CHEMBL5244269, “Improving metabolic stability and removing aldehyde oxidase liability in a 5-azaquinazoline series of IRAK4 inhibitors” (Bioorg Med Chem, 2020).
# Key:
# Type in all cases: functional
# [1] = test system: SUD4; test: Growth inhibition of human SU-DHL-4 cells at 1.7 uM incubated for 3 days in presence of 0.033 uM acalabrutinib relative to control; conditions: SU-DHL-4, 72 h, time 3 day, read-out: GI
# [2] = test system: SUD4; test: Growth inhibition of human SU-DHL-4 cells at 1.7 uM incubated for 3 days in presence of 0.017 uM acalabrutinib relative to control; conditions: SU-DHL-4, 72 h, time 3 day, read-out: GI
# [3] = test system: SUD4; test: Growth inhibition of human SU-DHL-4 cells at 1.7 uM incubated for 3 days in presence of 0.003 uM acalabrutinib relative to control; conditions: SU-DHL-4, 72 h, time 3 day, read-out: GI
# [4] = test system: SUD4; test: Growth inhibition of human SU-DHL-4 cells at 0.33 uM incubated for 3 days in presence of 0.33 uM acalabrutinib relative to control; conditions: SU-DHL-4, 72 h, time 3 day, read-out: GI
# [5] = test system: SUD4; test: Growth inhibition of human SU-DHL-4 cells at 0.33 uM incubated for 3 days in presence of 0.17 uM acalabrutinib relative to control; conditions: SU-DHL-4, 72 h, time 3 day, read-out: GI
# [6] = test system: SUD4; test: Growth inhibition of human SU-DHL-4 cells at 0.33 uM incubated for 3 days in presence of 0.033 uM acalabrutinib relative to control; conditions: SU-DHL-4, 72 h, time 3 day, read-out: GI
# [7] = test system: SUD4; test: Growth inhibition of human SU-DHL-4 cells at 0.33 uM incubated for 3 days in presence of 0.017 uM acalabrutinib relative to control; conditions: SU-DHL-4, 72 h, time 3 day, read-out: GI
# [8] = test system: SUD4; test: Growth inhibition of human SU-DHL-4 cells at 0.17 uM incubated for 3 days in presence of 0.33 uM acalabrutinib relative to control; conditions: SU-DHL-4, 72 h, time 3 day, read-out: GI
# [9] = test system: SUD4; test: Growth inhibition of human SU-DHL-4 cells at 0.33 uM incubated for 3 days in presence of 0.003 uM acalabrutinib relative to control; conditions: SU-DHL-4, 72 h, time 3 day, read-out: GI
# [10] = test system: SUD4; test: Growth inhibition of human SU-DHL-4 cells at 0.17 uM incubated for 3 days in presence of 0.17 uM acalabrutinib relative to control; conditions: SU-DHL-4, 72 h, time 3 day, read-out: GI
# [11] = test system: SUD4; test: Growth inhibition of human SU-DHL-4 cells at 0.17 uM incubated for 3 days in presence of 0.033 uM acalabrutinib relative to control; conditions: SU-DHL-4, 72 h, time 3 day, read-out: GI
# [12] = test system: SUD4; test: Growth inhibition of human SU-DHL-4 cells at 0.17 uM incubated for 3 days in presence of 0.017 uM acalabrutinib relative to control; conditions: SU-DHL-4, 72 h, time 3 day, read-out: GI
# [13] = test system: SUD4; test: Growth inhibition of human SU-DHL-4 cells at 0.17 uM incubated for 3 days in presence of 0.003 uM acalabrutinib relative to control; conditions: SU-DHL-4, 72 h, time 3 day, read-out: GI
# [14] = test system: OCI-Ly10; test: Growth inhibition of human OCILY10 cells at 0.17 uM incubated for 3 days in presence of 0.017 uM acalabrutinib relative to control; conditions: OCI-Ly10, 72 h, time 3 day, read-out: GI
# [15] = test system: OCI-Ly10; test: Growth inhibition of human OCILY10 cells at 0.17 uM incubated for 3 days in presence of 0.033 uM acalabrutinib relative to control; conditions: OCI-Ly10, 72 h, time 3 day, read-out: GI
# [16] = test system: OCI-Ly10; test: Growth inhibition of human OCILY10 cells at 0.17 uM incubated for 3 days in presence of 0.17 uM acalabrutinib relative to control; conditions: OCI-Ly10, 72 h, time 3 day, read-out: GI
# [17] = test system: OCI-Ly10; test: Growth inhibition of human OCILY10 cells at 0.17 uM incubated for 3 days in presence of 0.33 uM acalabrutinib relative to control; conditions: OCI-Ly10, 72 h, time 3 day, read-out: GI
# [18] = test system: OCI-Ly10; test: Growth inhibition of human OCILY10 cells at 0.33 uM incubated for 3 days in presence of 0.003 uM acalabrutinib relative to control; conditions: OCI-Ly10, 72 h, time 3 day, read-out: GI
# [19] = test system: OCI-Ly10; test: Growth inhibition of human OCILY10 cells at 0.33 uM incubated for 3 days in presence of 0.017 uM acalabrutinib relative to control; conditions: OCI-Ly10, 72 h, time 3 day, read-out: GI
# [20] = test system: OCI-Ly10; test: Growth inhibition of human OCILY10 cells at 0.33 uM incubated for 3 days in presence of 0.033 uM acalabrutinib relative to control; conditions: OCI-Ly10, 72 h, time 3 day, read-out: GI
# [21] = test system: OCI-Ly10; test: Growth inhibition of human OCILY10 cells at 0.33 uM incubated for 3 days in presence of 0.17 uM acalabrutinib relative to control; conditions: OCI-Ly10, 72 h, time 3 day, read-out: GI
# [22] = test system: OCI-Ly10; test: Growth inhibition of human OCILY10 cells at 0.33 uM incubated for 3 days in presence of 0.33 uM acalabrutinib relative to control; conditions: OCI-Ly10, 72 h, time 3 day, read-out: GI
# [23] = test system: OCI-Ly10; test: Growth inhibition of human OCILY10 cells at 1.7 uM incubated for 3 days in presence of 0.017 uM acalabrutinib relative to control; conditions: OCI-Ly10, 72 h, time 3 day, read-out: GI
# [24] = test system: OCI-Ly10; test: Growth inhibition of human OCILY10 cells at 1.7 uM incubated for 3 days in presence of 0.033 uM acalabrutinib relative to control; conditions: OCI-Ly10, 72 h, time 3 day, read-out: GI
# [25] = test system: OCI-Ly10; test: Growth inhibition of human OCILY10 cells at 1.7 uM incubated for 3 days in presence of 0.17 uM acalabrutinib relative to control; conditions: OCI-Ly10, 72 h, time 3 day, read-out: GI
# [26] = test system: OCI-Ly10; test: Growth inhibition of human OCILY10 cells at 1.7 uM incubated for 3 days in presence of 0.33 uM acalabrutinib relative to control; conditions: OCI-Ly10, 72 h, time 3 day, read-out: GI
# [27] = test system: OCI-Ly10; test: Growth inhibition of human OCILY10 cells at 3.3 uM incubated for 3 days in presence of 0.003 uM acalabrutinib relative to control; conditions: OCI-Ly10, 72 h, time 3 day, read-out: GI
# [28] = test system: OCI-Ly10; test: Growth inhibition of human OCILY10 cells at 3.3 uM incubated for 3 days in presence of 0.033 uM acalabrutinib relative to control; conditions: OCI-Ly10, 72 h, time 3 day, read-out: GI
# [29] = test system: OCI-Ly10; test: Growth inhibition of human OCILY10 cells at 3.3 uM incubated for 3 days in presence of 0.17 uM acalabrutinib relative to control; conditions: OCI-Ly10, 72 h, time 3 day, read-out: GI
# [30] = test system: OCI-Ly10; test: Growth inhibition of human OCILY10 cells at 3.3 uM incubated for 3 days in presence of 0.33 uM acalabrutinib relative to control; conditions: OCI-Ly10, 72 h, time 3 day, read-out: GI
# [31] = test system: OCI-Ly10; test: Growth inhibition of human OCILY10 cells at 10 uM incubated for 3 days in presence of 0.003 uM acalabrutinib relative to control; conditions: OCI-Ly10, 72 h, time 3 day, read-out: GI
# [32] = test system: OCI-Ly10; test: Growth inhibition of human OCILY10 cells at 10 uM incubated for 3 days in presence of 0.017 uM acalabrutinib relative to control; conditions: OCI-Ly10, 72 h, time 3 day, read-out: GI
# [33] = test system: OCI-Ly10; test: Growth inhibition of human OCILY10 cells at 10 uM incubated for 3 days in presence of 0.033 uM acalabrutinib relative to control; conditions: OCI-Ly10, 72 h, time 3 day, read-out: GI
# [34] = test system: OCI-Ly10; test: Growth inhibition of human OCILY10 cells at 10 uM incubated for 3 days in presence of 0.17 uM acalabrutinib relative to control; conditions: OCI-Ly10, 72 h, time 3 day, read-out: GI
# [35] = test system: OCI-Ly10; test: Growth inhibition of human OCILY10 cells at 10 uM incubated for 3 days in presence of 0.33 uM acalabrutinib relative to control; conditions: OCI-Ly10, 72 h, time 3 day, read-out: GI
# [36] = test system: SUD4; test: Growth inhibition of human SU-DHL-4 cells at 1.7 uM incubated for 3 days in presence of 0.17 uM acalabrutinib relative to control; conditions: SU-DHL-4, 72 h, time 3 day, read-out: GI
# [37] = test system: SUD4; test: Growth inhibition of human SU-DHL-4 cells at 1.7 uM incubated for 3 days in presence of 0.33 uM acalabrutinib relative to control; conditions: SU-DHL-4, 72 h, time 3 day, read-out: GI
# [38] = test system: SUD4; test: Growth inhibition of human SU-DHL-4 cells at 3.3 uM incubated for 3 days in presence of 0.017 uM acalabrutinib relative to control; conditions: SU-DHL-4, 72 h, time 3 day, read-out: GI
# [39] = test system: SUD4; test: Growth inhibition of human SU-DHL-4 cells at 3.3 uM incubated for 3 days in presence of 0.033 uM acalabrutinib relative to control; conditions: SU-DHL-4, 72 h, time 3 day, read-out: GI
# [40] = test system: SUD4; test: Growth inhibition of human SU-DHL-4 cells at 3.3 uM incubated for 3 days in presence of 0.33 uM acalabrutinib relative to control; conditions: SU-DHL-4, 72 h, time 3 day, read-out: GI
# [41] = test system: SUD4; test: Growth inhibition of human SU-DHL-4 cells at 10 uM incubated for 3 days in presence of 0.003 uM acalabrutinib relative to control; conditions: SU-DHL-4, 72 h, time 3 day, read-out: GI
structure (smiles),measurement,setting,value
Cc1ncc(-c2nc3c(OC4(C)CC4)nc(Nc4cnn(C5CCN(C)CC5)c4)nc3cc2F)cn1,inhibition of growth at 1.7 µM,[1],-4%
same,inhibition of growth at 1.7 µM,[2],0%
same,inhibition of growth at 1.7 µM,[3],-1%
same,inhibition of growth at 0.33 µM,[4],-1%
same,inhibition of growth at 0.33 µM,[5],-2%
same,inhibition of growth at 0.33 µM,[6],-3%
same,inhibition of growth at 0.33 µM,[7],1%
same,inhibition of growth at 0.17 µM,[8],-2%
same,inhibition of growth at 0.33 µM,[9],0%
same,inhibition of growth at 0.17 µM,[10],-3%
same,inhibition of growth at 0.17 µM,[11],-4%
same,inhibition of growth at 0.17 µM,[12],0%
same,inhibition of growth at 0.17 µM,[13],-1%
same,inhibition of growth at 0.17 µM,[14],92%
same,inhibition of growth at 0.17 µM,[15],117%
same,inhibition of growth at 0.17 µM,[16],147%
same,inhibition of growth at 0.17 µM,[17],138%
same,inhibition of growth at 0.33 µM,[18],33%
same,inhibition of growth at 0.33 µM,[19],122%
same,inhibition of growth at 0.33 µM,[20],155%
same,inhibition of growth at 0.33 µM,[21],169%
same,inhibition of growth at 0.33 µM,[22],172%
same,inhibition of growth at 1.7 µM,[23],188%
same,inhibition of growth at 1.7 µM,[24],193%
same,inhibition of growth at 1.7 µM,[25],190%
same,inhibition of growth at 1.7 µM,[26],193%
same,inhibition of growth at 3.3 µM,[27],156%
same,inhibition of growth at 3.3 µM,[28],194%
same,inhibition of growth at 3.3 µM,[29],194%
same,inhibition of growth at 3.3 µM,[30],194%
same,inhibition of growth at 10 µM,[31],195%
same,inhibition of growth at 10 µM,[32],198%
same,inhibition of growth at 10 µM,[33],197%
same,inhibition of growth at 10 µM,[34],199%
same,inhibition of growth at 10 µM,[35],197%
same,inhibition of growth at 1.7 µM,[36],-3%
same,inhibition of growth at 1.7 µM,[37],-2%
same,inhibition of growth at 3.3 µM,[38],0%
same,inhibition of growth at 3.3 µM,[39],-4%
same,inhibition of growth at 3.3 µM,[40],-2%
same,inhibition of growth at 10 µM,[41],1%
